Source: US20090197279A1, “MICROTUBULE SYNTHESIS AS A BIOMARKER” (KINEMED, INC., priority 2005, published 2009)
“Also recorded” adds a separate entry of the source.

Columns and labels:
[1] = test system: hippocampal tubulin dimers and microtubule subsets; assay: 2H label incorporation into hippocampal tubulin dimers and microtubule subsets during CFC (GC/MS); assay type: in vivo, mouse; settings: conditioned mice, hippocampus
Description: FIG. 10 depicts microtubule/tubulin exchange during hippocampus-dependent contextual memory. (A) Protocol for measurement of microtubule/tubulin exchange during contextual fear conditioning (CFC). Tubulin dimers and microtubules subsets were labeled to plateau through continuous ^2H2O labeling, starting one day before CFC training. Labeling was continued throughout CFC training (Day 2) and the contextual conditioning test until mice were euthanized (Day 3). Vehicle or nocodazole treated-mice were injected 4 hours before CFC training, consisting of three pairings of conditioned and unconditioned stimuli inside an observation chamber, as described in Example 7 below. (B) CFC experiments were conducted in groups of naïve, vehicle- (50% cyclodextrin) and nocodazole-treated (0.2 mg/kg) mice (mean±SD, n=8 per each group), respectively. […] (C-E) ^2H label incorporation into hippocampal tubulin dimers and microtubule subsets was compared at sacrifice in the indicated experimental groups. Microtubule subpopulations were fractionated as described below, and the percentage of newly synthesized tubulin was quantified by GC/MS (mean±SD, n=3). (C) and (D) In vehicle-CFC trained mice, the increased freezing response corresponded with an increase in ^2H labeling of MAP2- and CS-associated MTs, compared to naïve control animals (§p<0.01 and §§p<0.05; two-way ANOVA). […] In (C-E), bars represent % new tubulin (mean±SD, n=3).
Tubulin was purified using minor modifications of protocols described previously (Fanara, P., Oback, B., Ashman, K., Podtelejnikov, A., Brandt, R. Identification of MINUS, a small polypeptide that functions as a microtubule nucleation suppressor. EMBO J. 18, 565-577 (1999); Fanara, P. et al. In vivo measurement of microtubule dynamics using stable isotope labeling with heavy water. Effect of taxanes. J. Biol. Chem. 279, 49940-49947 (2004). Briefly, cultured neurons were gently scraped off culture plates, washed in phosphate-buffered saline (PBS), and homogenized in microtubule-stabilizing buffer. For purification ex vivo, mice were anesthetized with isoflurane and euthanized by cervical dislocation. Brains were rapidly removed and washed in microtubule-stabilizing buffer (MSB); hippocampi were dissected and gently homogenized in MSB. […] The relative abundance of tubulin in each preparation (Tubulin dimers and TAU5-bound, MAP2-bound, and unbound microtubule fractions) was quantified by Western blot, and tubulin from these fractions was further purified by ion exchange and size exclusion chromatography, as previously described (Fanara, P. et al. In vivo measurement of microtubule dynamics using stable isotope labeling with heavy water. Effect of taxanes. J. Biol. Chem. 279, 49940-49947 (2004)). […]

[2] = test system: hippocampal tubulin dimers and tau-associated, tau-nonassociated (MAP2/STOP) and cold-stable microtubules; assay: 2H label incorporation into hippocampal tubulin dimers and microtubule fractions after ICVC infusion (2H2O labeling, GC/MS); assay type: in vivo, mouse; settings: for label incorporation into new MAP2/STOP-MTs: vs water
Procedure: In (A) and (B), mice received ICVC infusions of 6 μl water alone or containing 0.48 nmol glutamate (80 μM in the infusate), or glutamate plus 0.66 pmol Rp-cAMP (110 nM in the infusate). Animals were then labeled with ^2H2O for 8 hours (A) or 24 hours (B). At sacrifice, the hippocampal post-nuclear supernatant was fractionated as show in FIG. 5A; a separate aliquot was used for isolation of cold stable (CS) MTs (FIG. 5D). Glutamate injection stimulated label incorporation into new MAP2/STOP-MTs at 8 and 24 hours, and CS MTs at 24 hours; both were blocked by Rp-cAMP. In order to correct the effects of pharmacologic intervention on MT dynamics for the confounding changes in tubulin synthesis, the numbers above each bar express ^2H label incorporation into MT as a percentage of ^2H labeling in the corresponding tubulin dimer fractions. (C) Dose dependence of glutamate effects. ^2H2O labeling was initiated at time zero, 6 μl ICVC infusions with the indicated concentrations of glutamate were performed at 24 hours, and labeling was continued until sacrifice at 48 hours (24 hours post glutamate infusion). Hippocampal MTs were fractionated into tau-associated, MAP2-associated, and non-associated (STOP-associated) MT fractions, as in FIG. 5A. In all experiments, bars represent % new tubulin (mean±SD, n=3).
Tubulin was purified using minor modifications of protocols described previously (Fanara, P., Oback, B., Ashman, K., Podtelejnikov, A., Brandt, R. Identification of MINUS, a small polypeptide that functions as a microtubule nucleation suppressor. EMBO J. 18, 565-577 (1999); Fanara, P. et al. In vivo measurement of microtubule dynamics using stable isotope labeling with heavy water. Effect of taxanes. J. Biol. Chem. 279, 49940-49947 (2004). Briefly, cultured neurons were gently scraped off culture plates, washed in phosphate-buffered saline (PBS), and homogenized in microtubule-stabilizing buffer. For purification ex vivo, mice were anesthetized with isoflurane and euthanized by cervical dislocation. Brains were rapidly removed and washed in microtubule-stabilizing buffer (MSB); hippocampi were dissected and gently homogenized in MSB. To separate cytosolic tubulin dimers from microtubule polymers, post-nuclear supernatants were centrifuged at 190,000×g at 20° C. for 35 min. The supernatant or non-microtubule fraction (containing the soluble dimeric tubulin) was separated from the pellet or microtubule fraction (containing polymeric tubulin), quick-frozen and stored at −20° C. Microtubule pellets were further fractionated by sequential immunoaffinity chromatography steps (FIG. 3). In order to isolate tau-associated microtubules, TAU5 antibody was covalently coupled to epoxy-activated Sepharose beads (Amersham Pharmacia Biotech) at a concentration of 0.25 mg/ml. Approximately 0.2 mg of the microtubule pellet was incubated with TAU-5 beads in 0.5 ml MSB for 1 hour at room temperature. Unbound material was removed, the beads were washed three times in 0.5 ml of MSB, and bound material was eluted in 0.5 ml MSB containing 1M NaCl. In some experiments, MAP2-associated microtubules were captured from the TAU5-unbound material by immunoaffinity chromatography on epoxy-activated Sepharose beads coupled to MAP2 antibody (0.5 mg antibody per ml beads) using the same protocol. The relative abundance of tubulin in each preparation (Tubulin dimers and TAU5-bound, MAP2-bound, and unbound microtubule fractions) was quantified by Western blot, and tubulin from these fractions was further purified by ion exchange and size exclusion chromatography, as previously described (Fanara, P. et al. In vivo measurement of microtubule dynamics using stable isotope labeling with heavy water. Effect of taxanes. J. Biol. Chem. 279, 49940-49947 (2004)). […]

[3] = dose-dependence experiment, 24 hours post stimulation

COC(=O)Nc1nc2ccc(C(=O)c3cccs3)cc2[nH]1 [nocodazole]
label incorporation into tau-associated microtubules ([1]; nocodazole 0.2 mg/kg vs basal levels in naïve and conditioned animals): reduced; also recorded: significant disassembly | 2H incorporation into free tubulin dimers ([1]; nocodazole 0.2 mg/kg vs vehicle-treated controls): increase | label incorporation into MAP2-associated microtubules ([1]; nocodazole 0.2 mg/kg vs vehicle): reversed; also recorded: significant disassembly | reduction of label incorporation into CS microtubules ([1]; nocodazole 0.2 mg/kg): not statistically significant

N[C@@H](CCC(=O)[O-])C(=O)[O-].[K+].[K+] [glutamate, potassium L-glutamate]
label incorporation into new MAP2/STOP-MTs ([2]; 0.48 nmol glutamate ICVC, 2H2O labeling 8 hours): stimulated | label incorporation into new MAP2/STOP-MTs ([2]; 0.48 nmol glutamate ICVC, 2H2O labeling 24 hours): stimulated | fractional synthesis of tubulin dimers ([2]; 0.48 nmol glutamate ICVC, 8 and 24 hours labeling, vs controls): somewhat enhanced | tau-nonassociated microtubules exchanged with free tubulin ([2]; 0.48 nmol glutamate ICVC, 8 hours): ca. 80% | labeling of cold-stable (axonal shaft) microtubules ([2]; 0.48 nmol glutamate ICVC, 8 hours, vs controls): indistinguishable from controls | tau-nonassociated microtubules exchanged with free tubulin ([2]; 0.48 nmol glutamate ICVC, 24 hours): ca. 80% | cold-stable microtubules equilibrated with free tubulin ([2]; 0.48 nmol glutamate ICVC, 24 hours, MT label as percentage of tubulin dimer label): about 40% | label incorporation into cold stable (CS) MTs ([2]; 0.48 nmol glutamate ICVC, 24 hours, vs controls): increased | label incorporation into cold stable (CS) MTs ([2]; 0.48 nmol glutamate ICVC, 24 hours, vs controls, listed as Glutamate): stimulated | exchange of tau-associated microtubules with tubulin dimers ([2]; 8 hours after stimulation with glutamate): highly exchanged | dynamics of tau-associated microtubules ([2]; 24 hours after stimulation with glutamate, vs controls): less dynamic than controls | fractional tubulin synthesis ([2]; dose-dependence experiment: 2H2O started 24 hours before varying amounts of glutamate, sacrifice 24 hours post infusion): at most slight effects | decreased label incorporation in tau-associated microtubules [2, 3]: glutamate-dose dependent | increased tubulin incorporation into dendritic and axonal shaft microtubules [2, 3]: glutamate-dose dependent
